Assay results from patent US11098010B2 (priority 2017, dated 2021).
Where two headings read alike, the source gives them in different places.

Tested on: HBV rcDNA in HepDE19 cells
Assay: HepDE19 assay with bDNA quantitation of HBV rcDNA
Assay type: cell-based, hepatitis B virus (HBV)
Experimental: HepDE19 Assay with bDNA Quantitation of HBV rcDNA:
HepDE19 cell culture system is a HepG2 (human hepatocarcinoma) derived cell line that supports HBV DNA replication and cccDNA formation in a tetracycline (Tet)-regulated manner and produces HBV rcDNA and a detectable reporter molecule dependent on the production and maintenance of cccDNA (Guo, et al., 2007, J. Virol. 81:12472-12484).
HepDE19 (50,000 cells/well) were plated in 96-well collagen-coated tissue-culture treated microtiter plates in DMEM/F12 medium supplemented with 10% fetal bovine serum, 1% penicillin-streptomycin and 1 μg/mL tetracycline and incubated in a humidified incubator at 37° C. and 5% CO2 overnight. Next day, the cells were switched to fresh medium without tetracycline and incubated for 4 hours at 37° C. and 5% CO2. The cells were treated with fresh Tet-free medium with compounds at concentrations starting at 25 μM and a serial, ½ log, 8-point, titration series in duplicate. The final DMSO concentration in the assay was 0.5%. The plates were incubated for 7 days in a humidified incubator at 37° C. and 5% CO2. Following a 7 day-incubation, the level of rcDNA present in the inhibitor-treated wells was measured using a Quantigene 2.0 bDNA assay kit (Affymetrix, Santa Clara, Calif.) with HBV specific custom probe set and manufacturers instructions. Concurrently, the effect of compounds on cell viability was assessed using replicate plates, plated at a density of 5,000 cells/well and incubated for 4 days, to determine the ATP content as a measure of cell viability using the cell-titer glo reagent (CTG; Promega Corporation, Madison, Wis.) as per manufacturer's instructions. The plates were read using a Victor luminescence plate reader (PerkinElmer Model 1420 Multilabel counter) and the relative luminescence units (RLU) data generated from each well was calculated as % inhibition of the untreated control wells and analyzed using XL-Fit module in Microsoft Excel to determine EC50 and EC90 (bDNA) and CC50 (CTG) values using a 4-parameter curve fitting algorithm.
Representative compounds of the invention were tested for their abilities to inhibit formation of relaxed circular DNA (rcDNA) in a HepDE19 assay, as described elsewhere herein.

[1] = HepDE19 cells, inhibition of rcDNA formation, 7 day incubation, top concentration 25 μM, read-out: DE-19 bDNA EC50
[2] = Hepatitis B virus, HepDE19, 168 h, read-out: DE-19 bDNA EC50 (μM), HepDE19 cells, inhibition of rcDNA formation, 7 day incubation, top concentration 25 μM
[3] = read-out: DE-19 bDNA EC50, HepDE19 cells, inhibition of rcDNA formation, 7 day incubation, top concentration 25 μM
[4] = Hepatitis B virus, HepDE19, 168 h, HepDE19 cells, inhibition of rcDNA formation, 7 day incubation, top concentration 25 μM, read-out: DE-19 bDNA EC50

Row | SMILES | EC50 [2] [µM] | EC50 [4] [µM] | further results
1 | CC1(NC(=O)OCc2ccccn2)CCc2c(C(=O)Nc3ccc(F)c(Cl)c3)ccc(F)c21 (stereo not shown) [Compound 224, O-Pyridin-2-ylmethyl, N-(4-((3-chloro-4-fluorophenyl)carbamoyl)-7-fluoro-1-methyl-2,3-dihydro-1H-inden-1-yl) carbamate] |  |  | EC50 [1]: 11 µM
2 | O=C(N[C@H]1CCc2c(C(=O)Nc3ccc(F)c(Cl)c3)ccc(F)c21)OCc1ccc2ccccc2n1 [Compound 151, O-Quinolin-2-ylmethyl, N—(S)-(4-((3-chloro-4-fluorophenyl)carbamoyl)-7-fluoro-2,3-dihydro-1H-inden-1-yl) carbamate] | 0.41 |  | 
3 | COC(=O)NC1COc2c(C(=O)Nc3ccc(F)c(F)c3)cccc21 (stereo not shown) [Compound 4, O-Methyl, N-(7-((3,4-difluorophenyl)carbamoyl)-2,3-dihydrobenzofuran-3-yl) carbamate] |  |  | EC50 [3]: 5.3 µM
4 | O=C(N[C@H]1CCc2c(C(=O)Nc3ccc(F)c(Cl)c3)ccc(F)c21)OCc1cnccn1 [Compound 78, O-Pyrazin-2-ylmethyl, N—(S)-(4-((3-chloro-4-fluorophenyl)carbamoyl)-7-fluoro-2,3-dihydro-1H-inden-1-yl) carbamate] | 0.09 |  | 
5 | O=C1CC[C@H](COC(=O)N[C@H]2CCc3c(C(=O)Nc4ccc(F)c(Cl)c4)cccc32)N1 [Compound 21, O—((R)-5-Oxopyrrolidin-2-yl)methyl, N—((S)-4-((3-chloro-4-fluorophenyl)carbamoyl)-2,3-dihydro-1H-inden-1-yl) carbamate] | 0.58 |  | 
6 | CN1C(=O)NC2(CCc3c(C(=O)Nc4ccc(F)c(Cl)c4)ccc(F)c32)C1=O (single isomer, unassigned) [Compound 261, N-(3-chloro-4-fluoro-phenyl)-7′-fluoro-1-methyl-2,5-dioxo-spiro [imidazolidine-4,1′-indane]-4′-carboxamide] |  |  | EC50 [1]: 2.7 µM
7 | O=C(N[C@H]1CCc2c(C(=O)Nc3ccc(F)c(Cl)c3)ccc(F)c21)OCCOc1ccccc1 [Compound 99, O-2-Phenoxyethyl, N—(S)-(4-((3-chloro-4-fluorophenyl)carbamoyl)-7-fluoro-2,3-dihydro-1H-inden-1-yl) carbamate] | 1.22 |  | 
8 | O=C(N[C@H]1CCc2c(C(=O)Nc3ccc(F)c(Cl)c3)ccc(F)c21)OCc1ccn(COP(=O)(O)O)n1 [Compound 254, Sodium (S)-(3-((((4-((3-chloro-4-fluorophenyl)carbamoyl)-7-fluoro-2,3-dihydro-1H-inden-1-yl)carbamoyl)oxy)methyl)-1H-pyrazol-1-yl)methyl phosphate] | 0.57 |  | 
9 | COC(=O)NC1COc2c(C(=O)Nc3ccc(F)c(C)c3)ccc(F)c21 (stereo not shown) [Compound 201, O-Methyl, N-(4-fluoro-7-((4-fluoro-3-methylphenyl)carbamoyl)-2,3-dihydrobenzofuran-3-yl) carbamate] |  |  | EC50 [3]: 5.5 µM
10 | O=C(Nc1ccc(F)c(Cl)c1)c1cncc2c1CCC2NS(=O)(=O)C1CC1 (racemic) [Compound 268, N-(3-Chloro-4-fluorophenyl)-7-(cyclopropanesulfonamido)-6,7-dihydro-5H-cyclopenta[c]pyridine-4-carboxamide] |  | 8.2 | 
11 | O=C(N[C@H]1CCc2c(C(=O)Nc3ccc(F)c(Cl)c3)cccc21)OCc1ccccn1 [Compound 17] | 0.17 |  | 
12 | O=C(N[C@H]1CCc2c(C(=O)Nc3ccc(F)c(Cl)c3)ccc(F)c21)OCCCN1CCCC1=O [Compound 86, O-3-(2-Oxopyrrolidin-1-yl)propyl, N—(S)-(4-((3-chloro-4-fluorophenyl)carbamoyl)-7-fluoro-2,3-dihydro-1H-inden-1-yl) carbamate] | 0.43 |  | 
13 | CNC(=O)NC1c2c(F)ccc(C(=O)Nc3ccc(F)c(F)c3)c2CC1OC (stereo not shown) [Compound 245, N-(3,4-difluorophenyl)-7-fluoro-2-methoxy-1-(3-methylureido)-2,3-dihydro-1H-indene-4-carboxamide] |  | 4.9 | 
14 | O=C(N[C@H]1CCc2c(C(=O)Nc3ccc(F)c(Cl)c3)ccc(F)c21)OCc1ncccc1F [Compound 138, O-(3-Fluoropyridin-2-yl)methyl, N—(S)-(4-((3-chloro-4-fluorophenyl)carbamoyl)-7-fluoro-2,3-dihydro-1H-inden-1-yl) carbamate] | 0.16 |  | 
15 | COC(=O)NC1CSc2c(C(=O)Nc3ccc(F)c(Cl)c3)cccc21 (stereo not shown) [Compound 29, O-methyl, N-(7-((3-chloro-4-fluorophenyl)carbamoyl)-2,3-dihydrobenzo[b]thiophen-3-yl) carbamate] |  |  | EC50 [1]: 1.6 µM
16 | CNC(=O)NC1COc2c(C(=O)Nc3ccc(F)c(F)c3)cccc21 (single isomer, unassigned) [Compound 8, N-(3,4-difluorophenyl)-3-(3-methylureido)-2,3-dihydrobenzofuran-7-carboxamide] |  |  | EC50 [3]: 23 µM
17 | COC1Cc2c(C(=O)Nc3ccc(F)c(F)c3)ccc(F)c2C1NC(=O)OCc1ccccn1 (stereo not shown) [Compound 246, O-pyridin-2-ylmethyl, N-(4-((3,4-difluorophenyl)carbamoyl)-7-fluoro-2-methoxy-2,3-dihydro-1H-inden-1-yl)carbamate] |  | 2.7 | 
18 | O=C(N[C@H]1CCc2c(C(=O)Nc3ccc(F)c(Cl)c3)ccc(F)c21)OCCN1CCCC1=O [Compound 14, O-2-(2-Oxopyrrolidin-1-yl)ethyl, N—(S)-(4-((3-chloro-4-fluorophenyl)carbamoyl)-7-fluoro-2,3-dihydro-1H-inden-1-yl) carbamate] | 0.45 |  | 
19 | O=C(N[C@H]1CCc2c(C(=O)Nc3ccc(F)c(Cl)c3)ccc(F)c21)OC1CCC(O)CC1 (stereo partly drawn) [Compound 156, O-trans-4-Hydroxycyclohexyl, N—((S)-4-((3-chloro-4-fluorophenyl)carbamoyl)-7-fluoro-2,3-dihydro-1H-inden-1-yl) carbamate] |  |  | EC50 [3]: 0.22 µM
20 | CC(C)N1Cc2c(C(=O)Nc3ccc(F)c(Cl)c3)cccc2S1(=O)=O [Compound 278, N-(3-Chloro-4-fluorophenyl)-2-isopropyl-2,3-dihydrobenzo[d]isothiazole-4-carboxamide 1,1-dioxide] |  | 1.3 | 
21 | COC(=O)NC1CSc2c(C(=O)Nc3ccc(F)c(F)c3)ccc(F)c21 (stereo not shown) [Compound 57, O-Methyl, N-(7-((3,4-difluorophenyl)carbamoyl)-4-fluoro-2,3-dihydrobenzo[b]thiophen-3-yl) carbamate] |  |  | EC50 [3]: > 25 µM
22 | O=C(Nc1ccc(F)c(Cl)c1)c1cccc2c1CNS2(=O)=O [Compound 275, N-(3-Chloro-4-fluorophenyl)-2,3-dihydrobenzo[d]isothiazole-4-carboxamide-1,1-dioxide] |  | 0.25 | 
23 | CC(=O)N[C@H]1CCc2c(C(=O)Nc3ccc(F)c(Cl)c3)ccc(F)c21 [Compound 77, (S)-1-Acetamido-N-(3-chloro-4-fluorophenyl)-7-fluoro-2,3-dihydro-1H-indene-4-carboxamide] |  | 0.2 | 
24 | CC(C)S(=O)(=O)N[C@H]1CCc2c(C(=O)Nc3ccc(F)c(Cl)c3)ccc(F)c21 [Compound 238, (S)—N-(3-Chloro-4-fluorophenyl)-7-fluoro-1-((1-methylethyl)sulfonamido)-2,3-dihydro-1H-indene-4-carboxamide] |  | 0.19 | 
25 | COCC(=O)N[C@H]1CCc2c(C(=O)Nc3ccc(F)c(Cl)c3)ccc(F)c21 [Compound 75, (S)—N-(3-Chloro-4-fluorophenyl)-7-fluoro-1-(2-methoxyacetamido)-2,3-dihydro-1H-indene-4-carboxamide] |  | 1.4 | 
